Assay results taken from ChEMBL document CHEMBL1201862, “PubChem BioAssay data set” (2004).
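Growth conditions: 96-well plates. Treatment: test compound, 48 hours, 5 concentrations. Analysis: linear interpolation between bracketing concentrations; unreached endpoints set to highest concentration. At the GI50, growth is halved.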 The source made the active and inactive calls. Cut-off read from the data, not from the text of the source: active = GI50 up to about 1.1 µM and inactive = higher.

Experiments:
Assay in all cases: NCI anticancer screen, dose series, 48 h
DMS-273 = system: DMS-273
DU-145 = system: DU-145
786-0 = system: 786-0
OVCAR-3 = system: OVCAR-3
CAKI-1 = system: CAKI-1
DMS-114 = system: DMS-114
SK-OV-3 = system: SK-OV-3
XF498 = system: XF498
OVCAR-5 = system: OVCAR-5
NCI-H226 = system: NCI-H226
CCRF-CEM = system: CCRF-CEM
SK-MEL-5 = system: SK-MEL-5
BT-549 = system: BT-549
TK-10 = system: TK-10
RXF 393 = system: RXF 393
HOP-92 = system: HOP-92
RXF 631 = system: RXF 631
MOLT-4 = system: MOLT-4
RPMI-8226 = system: RPMI-8226
SNB-19 = system: SNB-19
UACC-257 = system: UACC-257
HOP-62 = system: HOP-62
IGROV-1 = system: IGROV-1
MCF7 = system: MCF7
OVCAR-4 = system: OVCAR-4
K562 = system: K562
A498 = system: A498
KM-20L2 = system: KM-20L2
NCI-H23 = system: NCI-H23
COLO 205 = system: COLO 205
SF-268 = system: SF-268
HCT-116 = system: HCT-116
UACC-62 = system: UACC-62
HL-60 = system: HL-60
U-251 = system: U-251
UO-31 = system: UO-31
SN12C = system: SN12C
HCT-15 = system: HCT-15
NCI-H522 = system: NCI-H522
LOX IMVI = system: LOX IMVI
SK-MEL-28 = system: SK-MEL-28
DLD-1 = system: DLD-1
SR = system: SR
SK-MEL-2 = system: SK-MEL-2
Malme-3M = system: Malme-3M
EKVX = system: EKVX
A549 = system: A549
SNB-78 = system: SNB-78
OVCAR-8 = system: OVCAR-8
MDA-MB-435 = system: MDA-MB-435
T47D = system: T47D
SW-620 = system: SW-620
SF-539 = system: SF-539
M14 = system: M14
SF-295 = system: SF-295
HCC 2998 = system: HCC 2998
SNB-75 = system: SNB-75
KM12 = system: KM12
PC-3 = system: PC-3
NCI/ADR-RES = system: NCI/ADR-RES
M19-MEL = system: M19-MEL
NCI-H460 = system: NCI-H460
LXFL 529 = system: LXFL 529
MDA-MB-231 = system: MDA-MB-231
ACHN = system: ACHN
Hs-578T = system: Hs-578T
HT-29 = system: HT-29

Structure (SMILES): C/C(=N\N)C(CN1CCCCC1)C(c1ccccc1)c1c(O)c2ccccc2oc1=O (stereo not given)
- GI50 (DMS-273): > 100 µM (inactive)
- GI50 (DU-145): > 100 µM (inactive)
- GI50 (786-0): > 100 µM (inactive)
- GI50 (OVCAR-3): > 100 µM (inactive)
- GI50 (CAKI-1): > 100 µM (inactive)
- GI50 (DMS-114): > 100 µM (inactive)
- GI50 (SK-OV-3): > 100 µM (inactive)
- GI50 (XF498): > 100 µM (inactive)
- GI50 (OVCAR-5): > 100 µM (inactive)
- GI50 (NCI-H226): > 100 µM (inactive)
- GI50 (CCRF-CEM): > 100 µM (inactive)
- GI50 (SK-MEL-5): > 100 µM (inactive)
- GI50 (BT-549): > 100 µM (inactive)
- GI50 (TK-10): > 100 µM (inactive)
- GI50 (RXF 393): > 54.1 µM (inactive)
- GI50 (HOP-92): 67 µM (inactive)
- GI50 (RXF 631): > 100 µM (inactive)
- GI50 (MOLT-4): > 69.2 µM (inactive)
- GI50 (RPMI-8226): > 100 µM (inactive)
- GI50 (SNB-19): > 100 µM (inactive)
- GI50 (UACC-257): > 100 µM (inactive)
- GI50 (HOP-62): > 100 µM (inactive)
- GI50 (IGROV-1): > 100 µM (inactive)
- GI50 (MCF7): > 100 µM (inactive)
- GI50 (OVCAR-4): > 100 µM (inactive)
- GI50 (K562): > 100 µM (inactive)
- GI50 (A498): > 100 µM (inactive)
- GI50 (KM-20L2): > 100 µM (inactive)
- GI50 (NCI-H23): > 100 µM (inactive)
- GI50 (COLO 205): > 100 µM (inactive)
- GI50 (SF-268): > 100 µM (inactive)
- GI50 (HCT-116): > 100 µM (inactive)
- GI50 (UACC-62): > 100 µM (inactive)
- GI50 (HL-60): > 71 µM (inactive)
- GI50 (U-251): > 100 µM (inactive)
- GI50 (UO-31): > 67.3 µM (inactive)
- GI50 (SN12C): > 100 µM (inactive)
- GI50 (HCT-15): > 100 µM
- GI50 (NCI-H522): > 100 µM (inactive)
- GI50 (LOX IMVI): 25.7 µM (inactive)
- GI50 (SK-MEL-28): > 100 µM (inactive)
- GI50 (DLD-1): > 100 µM (inactive)
- GI50 (SR): > 100 µM (inactive)
- GI50 (SK-MEL-2): > 100 µM (inactive)
- GI50 (Malme-3M): > 87.7 µM (inactive)
- GI50 (EKVX): > 100 µM (inactive)
- GI50 (A549): > 100 µM (inactive)
- GI50 (SNB-78): > 100 µM (inactive)
- GI50 (OVCAR-8): > 100 µM (inactive)
- GI50 (MDA-MB-435): > 100 µM (inactive)
- GI50 (T47D): > 100 µM (inactive)
- GI50 (SW-620): > 100 µM (inactive)
- GI50 (SF-539): > 100 µM (inactive)
- GI50 (M14): > 100 µM (inactive)
- GI50 (SF-295): > 100 µM (inactive)
- GI50 (HCC 2998): > 100 µM (inactive)
- GI50 (SNB-75): 32.7 µM (inactive)
- GI50 (KM12): > 100 µM (inactive)
- GI50 (PC-3): > 100 µM (inactive)
- GI50 (NCI/ADR-RES): > 100 µM (inactive)
- GI50 (M19-MEL): > 100 µM (inactive)
- GI50 (NCI-H460): > 100 µM (inactive)
- GI50 (LXFL 529): > 100 µM (inactive)
- GI50 (MDA-MB-231): > 100 µM (inactive)
- GI50 (ACHN): > 100 µM (inactive)
- GI50 (Hs-578T): > 100 µM (inactive)
- GI50 (HT-29): > 100 µM (inactive)

Structure (SMILES): CCOC(=N)CC(=O)Nc1cccc(Cl)c1
- GI50 (DMS-273): > 100 µM (inactive)
- GI50 (786-0): > 100 µM (inactive)
- GI50 (OVCAR-3): > 100 µM (inactive)
- GI50 (CAKI-1): > 100 µM (inactive)
- GI50 (SK-OV-3): > 100 µM (inactive)
- GI50 (XF498): > 100 µM (inactive)
- GI50 (OVCAR-5): > 100 µM (inactive)
- GI50 (NCI-H226): > 100 µM (inactive)
- GI50 (CCRF-CEM): > 100 µM (inactive)
- GI50 (SK-MEL-5): > 100 µM (inactive)
- GI50 (TK-10): > 100 µM (inactive)
- GI50 (RXF 393): > 100 µM (inactive)
- GI50 (RXF 631): > 100 µM (inactive)
- GI50 (MOLT-4): > 100 µM (inactive)
- GI50 (SNB-19): > 100 µM (inactive)
- GI50 (UACC-257): > 100 µM (inactive)
- GI50 (HOP-62): > 100 µM (inactive)
- GI50 (IGROV-1): > 100 µM (inactive)
- GI50 (OVCAR-4): > 100 µM (inactive)
- GI50 (K562): > 100 µM (inactive)
- GI50 (A498): > 100 µM (inactive)
- GI50 (KM-20L2): > 100 µM (inactive)
- GI50 (NCI-H23): 4.9 µM (inactive)
- GI50 (COLO 205): > 100 µM (inactive)
- GI50 (SF-268): > 100 µM (inactive)
- GI50 (HCT-116): > 100 µM (inactive)
- GI50 (UACC-62): > 100 µM (inactive)
- GI50 (HL-60): > 100 µM (inactive)
- GI50 (U-251): > 100 µM (inactive)
- GI50 (UO-31): > 100 µM (inactive)
- GI50 (SN12C): 51.2 µM (inactive)
- GI50 (NCI-H522): > 100 µM (inactive)
- GI50 (LOX IMVI): > 100 µM (inactive)
- GI50 (SK-MEL-28): > 100 µM (inactive)
- GI50 (DLD-1): > 100 µM (inactive)
- GI50 (SR): > 100 µM (inactive)
- GI50 (SK-MEL-2): > 100 µM (inactive)
- GI50 (Malme-3M): 31.7 µM (inactive)
- GI50 (EKVX): > 100 µM (inactive)
- GI50 (A549): > 100 µM (inactive)
- GI50 (SNB-78): 5.65 µM (inactive)
- GI50 (OVCAR-8): > 100 µM (inactive)
- GI50 (SW-620): > 100 µM (inactive)
- GI50 (SF-539): > 100 µM (inactive)
- GI50 (M14): > 100 µM (inactive)
- GI50 (SF-295): > 100 µM (inactive)
- GI50 (HCC 2998): 67 µM (inactive)
- GI50 (SNB-75): > 100 µM (inactive)
- GI50 (KM12): > 100 µM (inactive)
- GI50 (M19-MEL): > 100 µM (inactive)
- GI50 (NCI-H460): > 100 µM (inactive)
- GI50 (LXFL 529): > 100 µM (inactive)
- GI50 (ACHN): > 100 µM (inactive)
- GI50 (HT-29): > 100 µM (inactive)

Structure (SMILES): COc1cc([C@H]2Oc3c(c(O)cc4oc(-c5ccccc5)cc(=O)c34)O[C@@H]2CO)ccc1O
- GI50 (DMS-273): 8.83 µM (inactive)
- GI50 (786-0): 21.9 µM (inactive)
- GI50 (CAKI-1): 63.2 µM (inactive)
- GI50 (DMS-114): 20 µM (inactive)
- GI50 (SK-OV-3): 84.9 µM (inactive)
- GI50 (XF498): 25.4 µM (inactive)
- GI50 (NCI-H226): 71.1 µM (inactive)
- GI50 (CCRF-CEM): 4.34 µM (inactive)
- GI50 (HOP-92): 31.7 µM (inactive)
- GI50 (RXF 631): 23.8 µM (inactive)
- GI50 (MOLT-4): > 10 µM (inactive)
- GI50 (RPMI-8226): 7.53 µM (inactive)
- GI50 (HOP-62): > 100 µM (inactive)
- GI50 (IGROV-1): 51.8 µM (inactive)
- GI50 (OVCAR-4): 23.8 µM (inactive)
- GI50 (K562): 21.6 µM (inactive)
- GI50 (A498): 67 µM (inactive)
- GI50 (NCI-H23): 38.5 µM (inactive)
- GI50 (COLO 205): 31.8 µM (inactive)
- GI50 (SF-268): 11.7 µM (inactive)
- GI50 (HCT-116): 21.5 µM (inactive)
- GI50 (UACC-62): 29.9 µM (inactive)
- GI50 (HL-60): 13.7 µM (inactive)
- GI50 (UO-31): 31.9 µM (inactive)
- GI50 (SN12C): 35.9 µM (inactive)
- GI50 (NCI-H522): 19.1 µM (inactive)
- GI50 (SK-MEL-28): 45.8 µM (inactive)
- GI50 (DLD-1): 16.6 µM (inactive)
- GI50 (SR): 8.87 µM (inactive)
- GI50 (SK-MEL-2): 22.8 µM (inactive)
- GI50 (Malme-3M): 24.2 µM (inactive)
- GI50 (SNB-78): > 100 µM (inactive)
- GI50 (SF-539): > 100 µM (inactive)
- GI50 (M14): 17.5 µM (inactive)
- GI50 (HCC 2998): 25.6 µM (inactive)
- GI50 (SNB-75): 28.9 µM (inactive)
- GI50 (M19-MEL): 24.7 µM (inactive)
- GI50 (NCI-H460): 5.14 µM (inactive)
- GI50 (LXFL 529): 24.3 µM (inactive)
